According to patent US6534516B1, “Androgen receptor modulator compounds and methods” (Ligand Pharmaceuticals Incorporated, priority 1996, dated 2003):
Like-named read-outs stand apart in the source and are kept apart here.

What was measured:
Test in all cases: cell-based
human AR [1] = molecular target: T1, human AR (Homo sapiens, UniProt P10275); type: cell-based; conditions: for EC50: read-out: AR Agonist CV-1 Cells Potency; for AR Antagonist CV-1 Cells Efficacy: antagonist mode, DHT at its EC50, % of maximal inhibition, na = not active; for IC50: read-out: AR Antagonist CV-1 Cells Potency; for AR activity profile (in words): summary of Tables 1 and 2
T1 construct: expressed in transfected cells; host or cells: CV-1 cells (African green monkey kidney fibroblasts)
T1 sequence (P10275 1-920): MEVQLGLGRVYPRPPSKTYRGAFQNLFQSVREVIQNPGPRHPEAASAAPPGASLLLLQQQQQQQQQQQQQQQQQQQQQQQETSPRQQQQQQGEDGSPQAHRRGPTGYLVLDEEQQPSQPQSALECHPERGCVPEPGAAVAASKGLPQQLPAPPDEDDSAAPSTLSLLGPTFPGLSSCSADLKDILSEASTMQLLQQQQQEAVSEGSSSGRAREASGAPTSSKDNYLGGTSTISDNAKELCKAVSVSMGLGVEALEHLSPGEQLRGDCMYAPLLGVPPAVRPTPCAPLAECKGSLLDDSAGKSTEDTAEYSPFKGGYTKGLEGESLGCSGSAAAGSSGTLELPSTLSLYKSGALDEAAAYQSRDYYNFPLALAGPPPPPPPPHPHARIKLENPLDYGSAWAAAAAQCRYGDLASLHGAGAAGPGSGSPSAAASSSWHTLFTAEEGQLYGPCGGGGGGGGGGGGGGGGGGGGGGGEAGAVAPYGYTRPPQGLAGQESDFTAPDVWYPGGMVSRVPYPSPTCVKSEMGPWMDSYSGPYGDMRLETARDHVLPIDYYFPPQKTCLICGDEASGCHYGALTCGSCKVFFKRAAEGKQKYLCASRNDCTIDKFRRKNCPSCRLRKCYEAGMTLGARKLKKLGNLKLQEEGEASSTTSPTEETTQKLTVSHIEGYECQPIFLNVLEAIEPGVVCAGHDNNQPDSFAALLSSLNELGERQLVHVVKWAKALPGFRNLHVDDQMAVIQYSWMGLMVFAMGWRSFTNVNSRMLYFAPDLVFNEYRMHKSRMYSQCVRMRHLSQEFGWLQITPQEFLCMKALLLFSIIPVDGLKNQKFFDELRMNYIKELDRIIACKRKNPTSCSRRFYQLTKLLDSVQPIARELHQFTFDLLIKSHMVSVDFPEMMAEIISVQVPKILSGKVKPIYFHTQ
Source text: The co-transfection assay provides a method for identifying functional agonists and partial agonists which mimic, or antagonists which inhibit, the effect of native hormones, and quantifying their activity for responsive IR proteins. In this regard, the co-transfection assay mimics an in vivo system in the laboratory. Importantly, activity in the co-transfection assay correlates very well with known in vivo activity, such that the co-transfection assay functions as a qualitative and quantitative predictor of a tested compounds in vivo pharmacology. See, e.g., T. Berger et al. 41 J. Steroid Biochem. Molec.
CV-1 cells (African green monkey kidney fibroblasts) were cultured in the presence of Dulbecco's Modified Eagle Medium (DMEM) supplemented with 10% charcoal resin-stripped fetal bovine serum then transferred to 96-well microtiter plates one day prior to transfection.
The reporter plasmid, MTV-LUC, contains the cDNA for firefly luciferase (LUC) under control of the mouse mammary tumor virus (MTV) long terminal repeat, a conditional promoter containing an androgen response element. See e.g., Berger et al. supra. In addition, pRS-β-Gal, coding for constitutive expression of E. coli β-galactosidase (β-Gal), was included as an internal control for evaluation of transfection efficiency and compound toxicity.
Three to four replicates were used for each sample.
After 40 hours, the cells were washed with PBS, lysed with a Triton X-100-based buffer and assayed for LUC and β-Gal activities using a luminometer or spectrophotometer, respectively. For each replicate, the normalized response (NR) was calculated as:
where β-Gal rate=β-Gal•1×10^−5/β-Gal incubation time.

human AR [2] = molecular target: T1, human AR; conditions: read-out: AR Binding Ki
PR = molecular target: T2, PR (Homo sapiens, UniProt P06401)
T2 sequence (P06401 1-933): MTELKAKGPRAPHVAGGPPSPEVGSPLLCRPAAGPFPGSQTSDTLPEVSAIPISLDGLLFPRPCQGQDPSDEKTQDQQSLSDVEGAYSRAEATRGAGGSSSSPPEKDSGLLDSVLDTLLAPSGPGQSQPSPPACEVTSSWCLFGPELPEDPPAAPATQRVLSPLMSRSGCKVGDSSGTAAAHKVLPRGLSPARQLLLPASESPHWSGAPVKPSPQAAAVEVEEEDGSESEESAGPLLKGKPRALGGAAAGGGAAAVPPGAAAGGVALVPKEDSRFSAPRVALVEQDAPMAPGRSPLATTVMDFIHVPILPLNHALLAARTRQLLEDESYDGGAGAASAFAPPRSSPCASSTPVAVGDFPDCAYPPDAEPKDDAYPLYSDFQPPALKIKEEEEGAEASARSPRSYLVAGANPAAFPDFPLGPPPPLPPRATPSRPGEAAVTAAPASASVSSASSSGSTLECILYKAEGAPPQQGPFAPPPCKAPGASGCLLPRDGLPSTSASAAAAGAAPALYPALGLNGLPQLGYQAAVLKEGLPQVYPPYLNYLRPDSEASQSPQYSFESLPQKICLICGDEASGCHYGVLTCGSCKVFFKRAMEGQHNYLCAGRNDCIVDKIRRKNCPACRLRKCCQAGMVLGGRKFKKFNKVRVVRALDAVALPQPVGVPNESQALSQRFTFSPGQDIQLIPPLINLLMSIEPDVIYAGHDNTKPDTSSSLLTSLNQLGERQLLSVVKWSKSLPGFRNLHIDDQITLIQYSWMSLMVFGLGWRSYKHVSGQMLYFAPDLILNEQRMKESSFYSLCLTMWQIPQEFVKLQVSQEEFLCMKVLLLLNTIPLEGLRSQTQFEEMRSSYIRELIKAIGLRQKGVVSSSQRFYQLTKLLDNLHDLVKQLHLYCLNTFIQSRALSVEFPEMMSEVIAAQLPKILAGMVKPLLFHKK

[3] = agonist mode, percent maximal response relative to reference agonist DHT, na = not active (efficacy < 10 and potency > 10,000)

Row | SMILES | AR Agonist CV-1 Cells Efficacy (human AR [1]) | EC50 (human AR [1]) | Ki (human AR [2]) | AR Agonist CV-1 Cells Efficacy (human AR [1]; [3]) | AR Antagonist CV-1 Cells Efficacy (human AR [1]) | IC50 (human AR [1]) | IC50 (PR) | EC50 (human AR [1]; agonist mode, na = not active (efficacy < 10 and potency > 10,000)) | AR activity profile (in words) (human AR [1])
1 | CCC1CCN([N+](=O)[O-])c2cc3[nH]c(=O)cc(C(F)(F)F)c3cc21 (racemic) [Compound 127, (R/S)-4-Ethyl-1,2,3,4-tetrahydro-1-nitro-6-(trifluoromethyl)-8-pyridono[5,6-g]quinoline] | 56 ± 12% | 85 ± 36 nM | 136 nM | – | – | – | – | – | –
2 | CCC1CCN(C(=O)C(F)(F)F)c2cc3[nH]c(=O)cc(C(F)(F)F)c3cc21 (racemic) [Compound 122, (R/S)-4-Ethyl-1,2,3,4-tetrahydro-1-(trifluoroacetyl)-6-(trifluoromethyl)-8-pyridono[5,6-g]quinoline] | – | 3 nM | 7 ± 2 nM | 100 ± 17% | – | – | – | – | –
3 | CC12CCCN1c1cc3[nH]c(=O)c(F)c(C(F)(F)F)c3cc1CC2 (racemic) [Compound 102, (R/S)-3-Fluoro-6,7,7a,11-tetrahydro-7a-methyl-4-trifluoromethyl-2-pyridono[5,6-g]pyrrolidino[1,2-a]quinoline] | – | – | 11 nM | – | 85 ± 1% | 193 ± 19 nM | 398 nM | – | –
4 | CC1CC(C)(C)n2oc(=O)c3c4[nH]c(=O)cc(C(F)(F)F)c4cc1c32 (centres unmarked) [Compound 113, 1,10-[1,3-dihydro-3-oxo-(2,1-isoxazolyl)]-1,2,3,4-tetrahydro-2,2,4,10-tetramethyl-6-trifluoromethyl-8-pyridono[5,6-g]quinoline] | – | – | 10 nM | 31% | 48% | – | – | 245 nM | mixed AR agonists/antagonists
5 | CN1c2cc3c(cc2CCC1(C)C)c(C(F)(F)F)c(F)c(=O)n3C [Compound 109, 7-Fluoro-1,2,3,4-tetrahydro-1,2,2,9-tetramethyl-6-trifluoromethyl-8-pyridono[5,6-g]quinoline] | 13 ± 8 % | 36 ± 45 nM | 18 ± 7 nM | – | 77 ± 4% | 15 ± 2 nM | – | – | highly selective AR antagonists
6 | CCC1(CC)CCc2cc3c(C(F)(F)F)c(F)c(=O)[nH]c3cc2N1 [Compound 120, 2,2-Diethyl-7-fluoro-1,2,3,4-tetrahydro-6-trifluoromethyl-8-pyridono[5,6-g]quinoline] | 18 ± 3% | 171 ± 95 nM | 156 ± 24 nM | – | 61 ± 5% | 17 ± 2 nM | – | – | –
7 | CC1(C)CCc2cc3c(C(F)F)c(F)c(=O)[nH]c3cc2N1 [Compound 106, 6-Difluoromethyl-7-fluoro-1,2,3,4-tetrahydro-2,2-dimethyl-8-pyridono[5,6-g]quinoline] | – | – | 73 ± 37 nM | – | 78 ± 3% | 52 ± 14 nM | – | – | –
8 | CC1CC(C)(C)Nc2cc3[nH]c(=O)c(F)c(C(F)(F)F)c3cc21 (centres unmarked) [Compound 112, 7-Fluoro-1,2,3,4-tetrahydro-2,2,4-trimethyl-6-trifluoromethyl-8-pyridono[5,6-g]quinoline] | 21 ± 6% | 26 ± 15 nM | 61 ± 16 nM | – | 42 ± 10% | 20 ± 1 nM | – | – | highly selective AR antagonists
9 | Cc1c2c(cc3c(C(F)(F)F)c(F)c(=O)[nH]c13)C(C)CC(C)(C)N2 (centres unmarked) [Compound 115, 7-Fluoro-1,2,3,4-tetrahydro-2,2,4,10-tetramethyl-6-trifluoromethyl-8-pyridono[5,6-g]quinoline] | – | – | 107 nM | – | 87 ± 1% | – | – | – | –
10 | Cn1c(=O)c(F)c(C(F)(F)F)c2cc3c(cc21)N1CCCC1(C)CC3 (racemic) [Compound 104, (R/S)-3-Fluoro-6,7,7a,11-tetrahydro-1,7a-dimethyl-4-trifluoromethyl-2-pyridono[5,6-g]pyrrolidino[1,2-a]quinoline] | – | – | 93 ± 48 nM | – | 85 ± 2% | 40 ± 9 nM | 800 nM | – | –
11 | Cn1c(=O)c(F)c(C(F)(F)F)c2cc3c(cc21)NC(C)(C)CC3 [Compound 107, 7-Fluoro-1,2,3,4-tetrahydro-2,2,9-trimethyl-6-trifluoromethyl-8-pyridono[5,6-g]quinoline] | – | – | 110 ± 42 nM | – | 83 ± 3% | 38 ± 10 nM | – | – | –
12 | CC1=CC(C)(C)Nc2cc3[nH]c(=O)c(F)c(C(F)(F)F)c3cc21 [Compound 111, 7-Fluoro-1,2-dihydro-2,2,4-trimethyl-6-trifluoromethyl-8-pyridono[5,6-g]quinoline] | 16 ± 2% | 227 ± 59 nM | 12 nM | – | 53 ± 5% | 43 ± 8 nM | – | – | mixed AR agonists/antagonists
13 | CC1(C)CCc2cc3c(C(F)(F)F)cc(=O)[nH]c3cc2N1O [Compound 118, 1,2,3,4-Tetrahydro-1-hydroxy-2,2-dimethyl-6-trifluoromethyl-8-pyridono[5,6-g]quinoline] | – | – | 86 ± 29 nM | – | 70 ± 2 % | 482 ± 179 nM | – | – | –
14 | Cn1c(=O)cc(C(F)(F)F)c2cc3c(cc21)N(O)C(C)(C)CC3 [Compound 119, 1,2,3,4-Tetrahydro-1-hydroxy-2,2,9-trimethyl-6-trifluoromethyl-8-pyridono[5,6-g]quinoline] | – | – | 74 ± 29 nM | – | 40 ± 12% | 1570 ± 1050 nM | – | – | –
